The values below come from ChEMBL document CHEMBL5370565, “Inhibition of Cysteine Proteases via Thiol-Michael Addition Explains the Anti-SARS-CoV-2 and Bioactive Properties of Arteannuin B” (J Nat Prod, 2023).

The source made the active and inactive calls. The rule behind the calls is not given here.

One experiment concerns Glioblastoma cell line. Briefly: Cytotoxicity against glioblastoma (unknown origin) cells assessed as reduction in cell viability at 35 uM incubated for 24 hrs by eFluor 780 fixable viability dye based flow cytometric analysis. Format: functional. For orientation: A flow cytometer gives signals particle by particle.
A further experiment has as its target Caspase-8 (Homo sapiens) (UniProt Q14790). Briefly: Inhibition of C-terminal 6his tagged human Caspase 8 activity expressed in Escherichia coli BL21 (DE3) cells at 50 uM preincubated for 30 mins by LC-MS analysis.
The test system of another experiment is SARS-CoV-2. Briefly: Antiviral activity against SARS-CoV-2 GX_P2V infected in African green monkey Vero E6 cells assessed as reduction in viral yield pretreated with cells for 2 hrs followed by viral infection and measured after 72 hrs by qRT-PCR analysis. As to conditions: Severe acute respiratory syndrome coronavirus 2, GX_P2V, Vero C1008. It is filed as functional, organism-based.

Experiment [1] deals with Severe acute respiratory syndrome coronavirus 2. Briefly: Inhibition of C-terminal 6his-tagged/N-terminal strepII-tagged SARS-CoV-2 NSP5 expressed in Escherichia coli BL21 (DE3) cells using (4-Fluoro-F)LQS as substrate assessed as (4-fluoro-F)L production at 48 uM preincubated with compound for 60 mins followed by substrate addition and measured after 300 mins by LC-MS analysis relative to control. The conditions noted are these: time 360.0 min.

Caspase-8 (Homo sapiens), sequence (Q14790 217-374 limits assumed): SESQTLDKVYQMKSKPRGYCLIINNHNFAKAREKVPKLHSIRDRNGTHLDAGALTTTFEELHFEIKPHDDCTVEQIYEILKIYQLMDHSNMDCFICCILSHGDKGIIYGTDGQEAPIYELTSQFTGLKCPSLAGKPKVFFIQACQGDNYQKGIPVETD
Caspase-8 (Homo sapiens), sequence (Q14790 385-479 limits assumed): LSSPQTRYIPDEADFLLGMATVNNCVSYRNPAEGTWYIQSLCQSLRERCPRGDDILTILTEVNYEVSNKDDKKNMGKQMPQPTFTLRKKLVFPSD

On to `C[C@@H]1CC[C@H]2[C@H](C)C(=O)O[C@]23[C@H]1CC[C@@]1(C)O[C@@H]31`, for which the outcome in the experiment on Glioblastoma cell line was inactive.

On to `C=C1C(=O)O[C@@]23C1CC[C@@H](C)[C@@H]2CC[C@@]1(C)O[C@@H]31` (stereo not given in full), for which the inhibition (commonly the share of the control response that was lost under treatment) on Caspase-8 (Homo sapiens) is “Active”. In addition, the half-maximal effective concentration (EC50) – broadly, the concentration needed to bring the measured effect to its halfway point – in the experiment on SARS-CoV-2 is 8.84 µM. In addition, the result in the experiment on Glioblastoma cell line was Active. The inhibition in experiment [1] worked out at 45%.
